Results taken from patent US4550179A, “N-(1-Allyl-2-pyrrolidinyl-methyl) 2-methoxy-4-amino-5-methylsulfamoyl benzamide” (Societe d'Etudes Scientifiques et Industrielles de l'Ile-de …, priority 1980, dated 1985).

Key:
[1] = acute toxicity (lethal dose 50); conditions: in vivo, male mouse
carotid arteries = assay: hypertensive response to blocking of carotid arteries, anaesthetised dog; format: in vivo; conditions: for % reduction relative to control hypertension (R): blocking of carotid arteries for 30 seconds
Text: (§1) The effects of the benzamide on the cardiovascular system were studied in a dog anaesthetised with chloralose, with the following results: […]

serotonin [2] = assay: hypertensive response to serotonin, anaesthetised dog treated with chlorisondamine; format: in vivo
Text: (§2) The effects of the benzamide on the cardiovascular system were studied in a dog anaesthetised with chloralose, with the following results:
% inhibition of hypertension after […]

arterial pressure = arterial pressure in dog anaesthetised with chloralose; format: in vivo
Text: as §2
Variations in arterial pressure
(mg/kg/I.V.) relative to initial pressure

histamine = assay: interaction with histamine, arterial pressure of anaesthetised dog; format: in vivo
Text: Finally, researchers looked for interaction between the benzamide according to the invention and histamine, in the arterial pressure of an anaesthetised dog and the isolated ileum of a guinea pig.

adrenalin = assay: hypertensive response to adrenalin, anaesthetised dog; format: in vivo; conditions: for % reduction relative to control hypertension (R): adrenalin
Text: as §1

serotonin [3] = assay: gastric ulcer producing effect of serotonin in the rat; format: in vivo; conditions: sc, subcutaneously, read-out: effective dose 50 (protection against gastric ulcer producing effect of serotonin)
migraine [4] = assay: comparative crossed double blind study versus oxetorone in migraine; format: in vivo; conditions: 63 migraine patients, 150 mg per day vs oxetorone 120 mg, 30 days
Text: (1) A comparative study, by a crossed double blind method, the reference product being oxetorone, which is medically known, applied to migraine. The study covered 63 migraine patients, the two treatments being applied for 30 days with an adequate interruption between sequences.

migraine [5] = assay: comparative study with Pizotifene in migraine; format: in vivo; conditions: 17 migraine patients, 150 mg per day orally
Method: (2) A comparative study with Pizotifene, an anti-histamine and antiserotonin compound which is also used in the basic treatment for migraine.
The study covered 17 patients suffering true attacks of migraine of regular frequency, which thus enabled the effectiveness of the treatment to be assessed from the number and intensity of attacks during a period of one month.
The benzamide according to the invention was applied orally in a dose of 150 mg per day, in three times. The Pizotifene was also administered orally, with the progressive dosage recommended for the product (0.73 mg×1 for 3 days-0.73 mg×2 for 3 days-0.73 mg×3 for 24 days).
The patients were distributed at random between the treatments.

isolated ileum = assay: anticholinergic action in vitro on isolated ileum; conditions: isolated ileum of guinea pig
[6] = anticonvulsive action (electric shock, pentetrazol, nicotine, auditory stimulus); format: in vivo; conditions: nicotine or auditory stimulus
[7] = tested on: hypotensive response to acetylcholine or to excitation of the vagus nerve; assay: hypotensive response to acetylcholine or excitation of the vagus nerve, anaesthetised dog; format: in vivo
Text: as §1

noradrenalin = assay: hypertensive response to noradrenalin, anaesthetised dog; format: in vivo; conditions: for % reduction relative to control hypertension (R): noradrenalin
Text: as §2
Noradrenalin 0.5 R = 21%

migraine [8] = assay: open investigation in migraine out-patients; format: in vivo; conditions: 150 mg per day orally in 3 doses
Method: (3) An open investigation covering 80 patients, who were followed in out-patient treatment with 150 mg of benzamide per day, given orally in 3 doses: […]

rat = assay: stereotypic movements of the rat caused by dopaminergic agonists (apomorphine or amphetamine); format: in vivo
nicotine = assay: hypertensive response to nicotine (orthosympathetic component), anaesthetised dog; format: in vivo; conditions: for % reduction of orthosympathetic component (R): nicotine
Text: as §1

isolated uterus = assay: serotonin-induced contraction of isolated uterus; conditions: isolated uterus of a rat, contraction produced by serotonin
Method: inhibited contraction of the isolated uterus of a rat, produced by serotonin. The contraction inhibiting dose 50 is of the order of 0.2 mg/l.

mice = assay: duration of barbituric (pentobarbital) hypnosis; format: in vivo, mouse
Method: Adminis- Dose Time of hypnosis, mice treated
Product tration mg/kg Time of hypnosis, control mice
N.B. The barbiturate used is pentobarbital in a dose of 60 mg/kg given

mouse = assay: spontaneous motility of mouse, Activograph method; format: in vivo; conditions: read-out: inhibiting effect on spontaneous motility at maximum dose administered
Text: Spontaneous motility of mouse:
inhibiting effect observed at
maximum dose administered
Adminis- WINTER & Activograph

[9] = BATCH 1, 1 mg/kg I.V., serotonin 37.5 μg/kg I.V.
[10] = BATCH 1, 5 mg/kg I.V., serotonin 25 μg/kg I.V.
[11] = BATCH 2, 1 mg/kg I.V., serotonin 25 μg/kg I.V.
[12] = BATCH 2, 5 mg/kg I.V., serotonin 25 μg/kg I.V.

C=CCN1CCCC1CNC(=O)c1cc(S(=O)(=O)NC)c(N)cc1OC (centres unmarked) [Benzamide according to the invention, N-(1-allyl-2-pyrrolidinyl-methyl)2-methoxy-4-amino-5-methylsulfamoyl benzamide]
LD50 ([1]; ip, intraperitoneal (basis)): 184 mg/kg | LD50 ([1]; po, per os (basis)): 3600 mg/kg | LD50 ([1]; sc, subcutaneous (basis)): 204 mg/kg | LD50 ([1]; intravenous (basis)): 44 mg/kg | hypertensive responses caused by blocking the carotid arteries (carotid arteries; anaesthetised dog): reduces the hypertensive responses | % reduction relative to control hypertension (R) (carotid arteries; cumulative dose 0.5 mg/kg I.V.): 0% | % reduction relative to control hypertension (R) (carotid arteries; cumulative dose 1 mg/kg I.V.): 30% | % reduction relative to control hypertension (R) (carotid arteries; cumulative dose 2 mg/kg I.V.): 43% | % reduction relative to control hypertension (R) (carotid arteries; cumulative dose 4 mg/kg I.V.): 48% | % reduction relative to control hypertension (R) (carotid arteries; cumulative dose 8 mg/kg I.V.): 86% | % reduction relative to control hypertension (R) (carotid arteries; cumulative dose 16 mg/kg I.V.): 90% | % reduction relative to control hypertension (R) (carotid arteries; cumulative dose 32 mg/kg I.V.): 100% | % inhibition of hypertension after 3 mn (serotonin [2]; [9]): 22% | % inhibition of hypertension after 30 mn (serotonin [2]; [9]): 8% | % inhibition of hypertension after 3 mn (serotonin [2]; [10]): 62% | % inhibition of hypertension after 30 mn (serotonin [2]; [10]): 63% | % inhibition of hypertension after 1 h (serotonin [2]; [10]): 51% | % inhibition of hypertension after 1 h 30 (serotonin [2]; [10]): 51% | % inhibition of hypertension after 2 h (serotonin [2]; [10]): 40% | % inhibition of hypertension after 3 mn (serotonin [2]; [11]): 36% | % inhibition of hypertension after 30 mn (serotonin [2]; [11]): 11% | % inhibition of hypertension after 1 h (serotonin [2]; [11]): 0% | % inhibition of hypertension after 3 mn (serotonin [2]; [12]): 78% | % inhibition of hypertension after 30 mn (serotonin [2]; [12]): 65% | % inhibition of hypertension after 1 h (serotonin [2]; [12]): 48% | % inhibition of hypertension after 1 h 30 (serotonin [2]; [12]): 43% | % inhibition of hypertension after 2 h (serotonin [2]; [12]): 33% | % inhibition of hypertension after 3 h (serotonin [2]; BATCH 2, 5 mg/kg I.V., serotonin 25 μg/kg I.V., 3 h): 33% | hypertensive response to serotonin (serotonin [2]; anaesthetised dog, chlorisondamine): reduces the hypertensive response to serotonin | Variations in arterial pressure relative to initial pressure (arterial pressure; cumulative dose 0.5 mg/kg I.V.): -21% | Variations in arterial pressure relative to initial pressure (arterial pressure; cumulative dose 1 mg/kg I.V.): -32% | Variations in arterial pressure relative to initial pressure (arterial pressure; cumulative dose 2 mg/kg I.V.): -36% | Variations in arterial pressure relative to initial pressure (arterial pressure; cumulative dose 4 mg/kg I.V.): -48% | Variations in arterial pressure relative to initial pressure (arterial pressure; cumulative dose 8 mg/kg I.V.): -54% | Variations in arterial pressure relative to initial pressure (arterial pressure; cumulative dose 16 mg/kg I.V.): -59% | Variations in arterial pressure relative to initial pressure (arterial pressure; cumulative dose 32 mg/kg I.V.): -58% | arterial pressure (arterial pressure; dog anaesthetised with chloralose): drop in arterial pressure proportional to the dose administered | anti-histamine properties (histamine): No anti-histamine properties were revealed | % reduction relative to control hypertension (R) (adrenalin; cumulative dose 0.5 mg/kg I.V.): 5% | % reduction relative to control hypertension (R) (adrenalin; cumulative dose 1 mg/kg I.V.): 3% | % reduction relative to control hypertension (R) (adrenalin; cumulative dose 2 mg/kg I.V.): 4% | % reduction relative to control hypertension (R) (adrenalin; cumulative dose 4 mg/kg I.V.): 21% | % reduction relative to control hypertension (R) (adrenalin; cumulative dose 8 mg/kg I.V.): 40% | % reduction relative to control hypertension (R) (adrenalin; cumulative dose 16 mg/kg I.V.): 68% | % reduction relative to control hypertension (R) (adrenalin; cumulative dose 32 mg/kg I.V.): 84% | hypertensive responses caused by adrenalin (adrenalin; anaesthetised dog): reduces the hypertensive responses | ED50 (serotonin [3]): ~3 mg/kg | therapeutic effectiveness and tolerance versus oxetorone (migraine [4]): statistically superior to oxetorone | effectiveness versus Pizotifene (migraine [5]): more effective than the second reference compound | anticholinergic action (isolated ileum): no anticholinergic action | anticonvulsive action [6]: no anticonvulsive action | hypotensive response to acetylcholine or to excitation of the vagus nerve [7]: does not change the hypotensive response | hypertensive responses caused by noradrenalin (noradrenalin; anaesthetised dog): reduces the hypertensive responses | % reduction relative to control hypertension (R) (noradrenalin; cumulative dose 0.5 mg/kg I.V.): 21% | % reduction relative to control hypertension (R) (noradrenalin; cumulative dose 1 mg/kg I.V.): 13% | % reduction relative to control hypertension (R) (noradrenalin; cumulative dose 2 mg/kg I.V.): 30% | % reduction relative to control hypertension (R) (noradrenalin; cumulative dose 4 mg/kg I.V.): 30% | % reduction relative to control hypertension (R) (noradrenalin; cumulative dose 8 mg/kg I.V.): 40% | % reduction relative to control hypertension (R) (noradrenalin; cumulative dose 16 mg/kg I.V.): 49% | % reduction relative to control hypertension (R) (noradrenalin; cumulative dose 32 mg/kg I.V.): 66% | remission in particularly severe cases of "accompanied" migraines (migraine [8]): the remission transformed the social life of the patient | General tolerance of the treatment (migraine [8]; 80 patients): very satisfactory | success (migraine [8]; 80 patients): 79% | counteraction of stereotypic movements (rat): does not counteract the stereotypic movements of the rat | hypertensive responses caused by small doses of nicotine (nicotine; anaesthetised dog): reduces the hypertensive responses | % reduction of orthosympathetic component (R) (nicotine; cumulative dose 0.5 mg/kg I.V.): 0% | % reduction of orthosympathetic component (R) (nicotine; cumulative dose 1 mg/kg I.V.): 0% | % reduction of orthosympathetic component (R) (nicotine; cumulative dose 2 mg/kg I.V.): 0% | % reduction of orthosympathetic component (R) (nicotine; cumulative dose 4 mg/kg I.V.): 0% | % reduction of orthosympathetic component (R) (nicotine; cumulative dose 8 mg/kg I.V.): 0% | % reduction of orthosympathetic component (R) (nicotine; cumulative dose 16 mg/kg I.V.): 49% | % reduction of orthosympathetic component (R) (nicotine; cumulative dose 32 mg/kg I.V.): 79% | contraction inhibiting dose 50 (isolated uterus): ~0.2 mg/L | Time of hypnosis, mice treated / Time of hypnosis, control mice (mice; I.P., 80 mg/kg, pentobarbital 60 mg/kg intraperitoneally): 1.6 | extension of the duration of barbituric hypnosis (mice; mouse, in vivo): does not extend the duration of barbituric hypnosis | inhibition at 80 mg/kg (mouse; ip, I.P., 80 mg/kg): 22% | inhibition at 300 mg/kg (mouse; po, P.O., 300 mg/kg): 25%
